According to the supplement of paper PMC6045584:
± gives the standard deviation of the averaged measurements.

What was measured:
[1] = compound: CCCCCCCCCCCCCCCC(=O)Nc1ccn([C@@H]2O[C@H](CO)[C@@H](O)[C@@H]2C#N)c(=O)n1 [SAPACITABINE]; test: area under dose-response curve of surviving fraction (unscaled, Aref=0) (surviving fraction x log10(nM)); higher = more resistant; conditions: exposure time: 5 days; dose range 0.5-1000 nM
Procedure, shortened: (§1)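 Surviving fractions were fitted by 3-parameter logistic regression in the drc R package to give dose-response survival curves. They came from tumour cell lines treated for five days with eight inhibitor concentrations from 0.5 to 1000 nM and read by CellTiter-Glo luminescence against DMSO-only wells. The area under the curve is the unscaled activity area. It was calculated over log10 dose with Aref = 0.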

[2] = compound: Cn1cc(C2=Nc3cc(NC(=O)C(N)C4CCCCC4)cc4c3C2=CNNC4=O)cn1; test: as above; conditions: exposure time: 5 days; dose range 0.5-1000 nM
Procedure, shortened: as §1

[3] = compound: T1, CN(C)C/C=C/C(=O)Nc1cc2c(Nc3ccc(F)c(Cl)c3)ncnc2cc1O[C@H]1CCOC1 [AFATINIB]; test: as above; conditions: exposure time: 5 days; dose range 0.5-1000 nM
Procedure, shortened: as §1

[4] = compound: CC1(C)CC(=O)c2c(C(F)(F)F)nn(-c3ccc(C(N)=O)c(N[C@H]4CC[C@H](OC(=O)CN)CC4)c3)c2C1 [SNX-5422]; test: as above; conditions: exposure time: 5 days; dose range 0.5-1000 nM
Procedure, shortened: as §1

[5] = compound: Cn1cc(C2=Nc3cc(NC(=O)C(N)C4CCCCC4)cc4c3C2=CNNC4=O)cn1; test: surviving fraction relative to DMSO-only wells; higher = less growth inhibition; conditions: exposure time: 5 days
Procedure, shortened: (§2)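 Lines were retained only if, across three screens, replicate Pearson r was >0.7 and median Z' was >0.3. Viability was measured as CellTiter-Glo luminescence and reported as surviving fraction relative to the median of DMSO-only wells. Readings followed 10 minutes at room temperature, after log-phase tumour cells seeded at 250–500 per well in 384-well plates had been exposed, from 24 hours after seeding, continuously for five days to inhibitors at 0.5, 1, 5, 10, 50, 100, 500 and 1000 nM.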

[6] = compound: T1, AFATINIB; test: as above; conditions: exposure time: 5 days
Procedure, shortened: as §2

Test System	area under dose-response curve [1]	area under dose-response curve [2]	area under dose-response curve [3]	area under dose-response curve [4]	surviving fraction ([5]; 0.5 nM)	surviving fraction ([5]; 1 nM)	surviving fraction ([5]; 5 nM)	surviving fraction ([5]; 10 nM)	surviving fraction ([5]; 50 nM)	surviving fraction ([5]; 100 nM)	surviving fraction ([5]; 500 nM)	surviving fraction ([5]; 1000 nM)	surviving fraction ([6]; 0.5 nM)	surviving fraction ([6]; 1 nM)	surviving fraction ([6]; 5 nM)	surviving fraction ([6]; 10 nM)	surviving fraction ([6]; 50 nM)	surviving fraction ([6]; 100 nM)	surviving fraction ([6]; 500 nM)	surviving fraction ([6]; 1000 nM)
HSSYII SYNOVIAL	1.36	1.67	2.96	1.9	0.92 ± 0.0095	0.96 ± 0.063	0.885 ± 0.062	0.863 ± 0.014	0.135 ± 0.01	0.046 ± 0.0044	0.0388 ± 0.0032	0.0475 ± 0.0025	0.981 ± 0.053	0.965 ± 0.1	0.941 ± 0.035	0.984 ± 0.044	0.94 ± 0.024	0.922 ± 0.064	0.635 ± 0.019	0.379 ± 0.017
HCC78 LUNG	1.52	2.33	2.33	1.71	0.91 ± 0.095	1.13 ± 0.26	0.993 ± 0.07	1.03 ± 0.17	0.887 ± 0.11	0.471 ± 0.29	0.0453 ± 0.011	0.0623 ± 0.013	0.943 ± 0.12	0.936 ± 0.17	0.867 ± 0.21	0.787 ± 0.19	0.64 ± 0.16	0.682 ± 0.13	0.383 ± 0.13	0.235 ± 0.027
HCC1806 BREAST	1.25	2.07	2.28	1.85	1.08 ± 0.062	1.16 ± 0.14	1.09 ± 0.071	1.05 ± 0.092	0.528 ± 0.15	0.145 ± 0.041	0.0373 ± 0.0042	0.0433 ± 0.0025	1.1 ± 0.084	1 ± 0.038	0.893 ± 0.071	0.726 ± 0.075	0.57 ± 0.045	0.586 ± 0.028	0.401 ± 0.036	0.343 ± 0.03
U2OS BONE	2.92	2.85	3.19	2.17	1.06 ± 0.016	1.08 ± 0.029	1.1 ± 0.045	1.08 ± 0.04	1.04 ± 0.029	0.999 ± 0.029	0.201 ± 0.017	0.0873 ± 0.0068	1.075 ± 0.001	1.05 ± 0.044	1.06 ± 0.013	1.02 ± 0.024	1.05 ± 0.0055	1.04 ± 0.056	0.838 ± 0.021	0.646 ± 0.0085
MDAMB361 BREAST	2.49	1.88	2.35	2.27	0.751 ± 0.014	0.706 ± 0.065	0.71 ± 0.023	0.656 ± 0.061	0.456 ± 0.028	0.399 ± 0.032	0.43 ± 0.013	0.49 ± 0.013	0.932 ± 0.059	0.796 ± 0.034	0.81 ± 0.041	0.799 ± 0.06	0.682 ± 0.088	0.629 ± 0.04	0.535 ± 0.02	0.459 ± 0.027
LNCAP PROSTATE	2.15	3.06	3.17	1.64	0.922 ± 0.12	1.11 ± 0.11	0.926 ± 0.14	0.915 ± 0.15	1.23 ± 0.052	1.06 ± 0.12	0.544 ± 0.024	0.287 ± 0.031	1.03 ± 0.093	0.998 ± 0.083	0.995 ± 0.062	0.922 ± 0.073	0.892 ± 0.11	1.01 ± 0.069	0.854 ± 0.1	0.649 ± 0.051
SUM44 BREAST	2.51	1.84	3.18	2.47	0.896 ± 0.016	0.936 ± 0.059	0.905 ± 0.072	0.594 ± 0.03	0.349 ± 0.028	0.239 ± 0.0068	0.232 ± 0.017	0.301 ± 0.015	1.04 ± 0.053	1 ± 0.054	1.01 ± 0.023	0.995 ± 0.077	1.07 ± 0.027	1.03 ± 0.022	0.859 ± 0.034	0.448 ± 0.047
